Patent US9233111B2, “Pyrrolo pyrimidine derivatives” (NOVARTIS AG, priority 2011, dated 2016)

Biological target: full-length human recombinant BTK (Homo sapiens (Human), UniProt Q06187)
Assay: Inhibition of Btk enzymatic activity (biochemical enzyme assay, Caliper)
Conditions: 30° C., 60 minutes
Description: The inhibitory activity of the present compounds against Btk was assessed in a biochemical enzyme assay. Assay plates in 384 well format were prepared with 8-point serial dilutions for the test compounds on a Thermo CatX workstation equipped with a Innovadyne Nanodrop Express. The assay plates were prepared by addition of 50 nl per well of compound solution in 90% DMSO. The kinase reactions were started by stepwise addition of 4.5 μl per well of peptide/ATP-solution (4 μM FITC-Ahx-[…]-NH2, 164 μM ATP) in kinase buffer (50 mM HEPES, pH 7.5, 1 mM DTT, 0.02% Tween20, 0.02% BSA, 0.6% DMSO, 10 mM beta-glycerophosphate, and 10 μM sodium orthovanadate, 18 mM MgCl2, 1 mM MnCl2) and 4.5 μl per well of enzyme solution (6.4 nM full-length human recombinant BTK) in kinase buffer. Kinase reactions were incubated at 30° C. for 60 minutes and subsequently terminated by addition of 16 μl per well of stop solution (100 mM HEPES pH 7.5, 5% DMSO, 0.1% Caliper coating reagent, 10 mM EDTA, and 0.015% Brij35). Kinase reactions were analyzed on a Caliper LC3000 workstation by separating phosphorylated and unphosphorylated peptides and kinase activities were calculated from the amounts of newly formed phospho-peptide. Inhibition data were calculated by comparison to control reactions without enzyme (100% inhibition) and without inhibitors (0% inhibition). The concentration of inhibitor required for 50% inhibition (IC50) was calculated from the inhibition in response to inhibitor concentrations.

full-length human recombinant BTK, sequence (Q06187 whole entry): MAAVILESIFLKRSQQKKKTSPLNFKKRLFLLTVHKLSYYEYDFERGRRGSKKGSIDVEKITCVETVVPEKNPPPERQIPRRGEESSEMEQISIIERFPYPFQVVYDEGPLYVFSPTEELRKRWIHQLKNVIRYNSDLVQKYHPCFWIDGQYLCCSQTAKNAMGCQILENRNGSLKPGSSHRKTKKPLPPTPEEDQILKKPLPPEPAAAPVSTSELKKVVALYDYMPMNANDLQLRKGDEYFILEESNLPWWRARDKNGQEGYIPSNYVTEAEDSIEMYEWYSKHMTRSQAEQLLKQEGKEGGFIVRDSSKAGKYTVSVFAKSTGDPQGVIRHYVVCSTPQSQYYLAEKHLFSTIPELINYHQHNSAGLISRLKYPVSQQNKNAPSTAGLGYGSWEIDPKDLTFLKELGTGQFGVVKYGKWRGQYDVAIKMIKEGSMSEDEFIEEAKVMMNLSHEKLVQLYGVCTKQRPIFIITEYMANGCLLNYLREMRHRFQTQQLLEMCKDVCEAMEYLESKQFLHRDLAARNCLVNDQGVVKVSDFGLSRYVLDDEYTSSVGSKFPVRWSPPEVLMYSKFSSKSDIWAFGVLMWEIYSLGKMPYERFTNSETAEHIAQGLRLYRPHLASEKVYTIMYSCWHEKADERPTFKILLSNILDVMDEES

Compound | IC50 [nM]
Cc1c(NC(=O)c2ccc(C3(F)CC3)cc2)cc(F)cc1-c1ncnc2[nH]c(C3=CCN(C(=O)N(C)C)CC3)cc12 [Example 1, 4-(4-{5-Fluoro-3-[4-(1-fluoro-cyclopropyl)-benzoylamino]-2-methyl-phenyl}-7H-pyrrolo[2′3-d]pyrimidin-6-yl)-3,6-dihydro-2H-pyridine-1-carboxylic acid dimethylamide] | 1
Cc1c(NC(=O)c2ccc(N(C)C(C)C)cc2)cc(F)cc1-c1ncnc2[nH]c(C3=CCN(C(=O)N(C)C)CC3)cc12 [Example 4] | 2
Cc1c(NC(=O)c2ccc3c(C)c[nH]c3c2)cc(F)cc1-c1ncnc2[nH]c(C3=CCN(C(=O)N(C)C)CC3)cc12 [Example 5, 3-Methyl-1H-indole-6-carboxylic acid {3-[6-(1-dimethylcarbamoyl-1,2,3,6-tetrahydro-pyridin-4-yl)-7H-pyrrolo[2,3-d]pyrimidin-4-yl]-5-fluoro-2-methyl-phenyl}-amide] | 3
Cc1c(NC(=O)c2ccc(N3CCCCC3)cc2)cc(F)cc1-c1ncnc2[nH]c(C3=CCN(C(=O)N(C)C)CC3)cc12 [Example 7, 4-{4-[5-Fluoro-2-methyl-3-(4-piperidin-1-yl-benzoylamino)-phenyl]-7H-pyrrolo[2,3-d]pyrimidin-6-yl}-3,6-dihydro-2H-pyridine-1-carboxylic acid dimethylamide] | 3
Cc1c(NC(=O)c2ccc(C3(C(F)(F)F)CC3)cc2)cc(F)cc1-c1ncnc2[nH]c(C3=CCN(C(=O)N(C)C)CC3)cc12 [Example 9, 4-(4-{5-Fluoro-2-methyl-3-[4-(1-trifluoromethyl-cyclopropyl)-benzoylamino]-phenyl}-7H-pyrrolo[2,3-d]pyrimidin-6-yl)-3,6-dihydro-2H-pyridine-1-carboxylic acid dimethylamide] | 5
Cc1c(NC(=O)c2ccc(OC(C)C)cc2)cc(F)cc1-c1ncnc2[nH]c(C3=CCN(C(=O)N(C)C)CC3)cc12 [Example 10, 4-{4-[5-Fluoro-3-(4-isopropoxy-benzoylamino)-2-methyl-phenyl]-7H-pyrrolo[2,3-d]pyrimidin-6-yl}-3,6-dihydro-2H-pyridine-1-carboxylic acid dimethylamide] | 15
Cc1c(NC(=O)c2ccc(S(F)(F)(F)(F)F)cc2)cc(F)cc1-c1ncnc2[nH]c(C3=CCN(C(=O)N(C)C)CC3)cc12 [Example 11, 4-(4-{5-Fluoro-3-[4-pentafluorothio-benzoylamino]-2-methyl-phenyl}-7H-pyrrolo[2,3-d]pyrimidin-6-yl)-3,6-dihydro-2H-pyridine-1-carboxylic acid dimethylamide] | 5
COCC(C)(C)c1ccc(C(=O)Nc2cc(F)cc(-c3ncnc4[nH]c(C5=CCN(C(=O)N(C)C)CC5)cc34)c2C)cc1 [Example 12, 4-(4-{5-Fluoro-3-[4-(2-methoxy-1,1-dimethyl-ethyl)-benzoylamino]-2-methyl-phenyl}-7H-pyrrolo[2,3-d]pyrimidin-6-yl)-3,6-dihydro-2H-pyridine-1-carboxylic acid dimethylamide] | 4
COC(C)(C)c1ccc(C(=O)Nc2cc(F)cc(-c3ncnc4[nH]c(C5=CCN(C(=O)N(C)C)CC5)cc34)c2C)cc1 [Example 13, 4-(4-{5-Fluoro-3-[4-(1-methoxy-1-methyl-ethyl)-benzoylamino]-2-methyl-phenyl}-7H-pyrrolo[2,3-d]pyrimidin-6-yl)-3,6-dihydro-2H-pyridine-1-carboxylic acid dimethylamide] | 4
Cc1c(NC(=O)c2ccc3ccn(C)c3n2)cc(F)cc1-c1ncnc2[nH]c(C3=CCN(C(=O)N(C)C)CC3)cc12 [Example 14, 1-Methyl-1H-pyrrolo[2,3-b]pyridine-6-carboxylic acid {3-[6-(1-dimethyl-carbamoyl-1,2,3,6-tetrahydro-pyridin-4-yl)-7H-pyrrolo[2,3-d]pyrimidin-4-yl]-5-fluoro-2-methyl-phenyl}-amide] | 16
Cc1c(NC(=O)c2ccc(N(C)C)cc2)cc(F)cc1-c1ncnc2[nH]c(C3=CCN(C(=O)N(C)C)CC3)cc12 [Example 15, 4-{4-[3-(4-Dimethylamino-benzoylamino)-5-fluoro-2-methyl-phenyl]-7H-pyrrolo[2,3-d]pyrimidin-6-yl}-3,6-dihydro-2H-pyridine-1-carboxylic acid dimethylamide] | 17
Cc1c(NC(=O)c2ccc(C(C)(O)C(F)(F)F)cc2)cc(F)cc1-c1ncnc2[nH]c(C3=CCN(C(=O)N(C)C)CC3)cc12 (stereo not drawn) [Example 18, 4-(4-{5-Fluoro-2-methyl-3-[4-(2,2,2-trifluoro-1-hydroxy-1-methyl-ethyl)-benzoylamino]-phenyl}-7H-pyrrolo[2,3-d]pyrimidin-6-yl)-3,6-dihydro-2H-pyridine-1-carboxylic acid dimethylamide] | 6
CC(=O)c1ccc(C(=O)Nc2cc(F)cc(-c3ncnc4[nH]c(C5=CCN(C(=O)N(C)C)CC5)cc34)c2C)cc1 [Example 19, 4-{4-[3-(4-Acetyl-benzoylamino)-5-fluoro-2-methyl-phenyl]-7H-pyrrolo[2,3-d]pyrimidin-6-yl}-3,6-dihydro-2H-pyridine-1-carboxylic acid dimethylamide] | 23
CN(C)C(=O)N1CC=C(c2cc3c(-c4ccc(F)c(NC(=O)c5ccc(C6CC6)cc5)c4)ncnc3[nH]2)CC1 [Example 20, 4-{4-[3-(4-Cyclopropyl-benzoylamino)-4-fluoro-phenyl]-7H-pyrrolo[2,3-d]pyrimidin-6-yl}-3,6-dihydro-2H-pyridine-1-carboxylic acid dimethylamide] | 6
CN(C)C(=O)N1CC=C(c2cc3c(-c4ccc(F)c(NC(=O)c5ccc(C(C)(C)CO)cc5)c4)ncnc3[nH]2)CC1 [Example 21, 4-(4-{4-Fluoro-3-[4-(2-hydroxy-1,1-dimethyl-ethyl)-benzoylamino]-phenyl}-7H-pyrrolo[2,3-d]pyrimidin-6-yl)-3,6-dihydro-2H-pyridine-1-carboxylic acid dimethylamide] | 6
Cc1c(NC(=O)c2ccc(C(C)(C)O)cc2F)cc(F)cc1-c1ncnc2[nH]c(C3=CCOCC3)cc12 [Example 22, N-{3-[6-(3,6-Dihydro-2H-pyran-4-yl)-7H-pyrrolo[2,3-d]pyrimidin-4-yl]-5-fluoro-2-methyl-phenyl}-2-fluoro-4-(1-hydroxy-1-methyl-ethyl)-benzamide] | 8
CC(C)(O)c1ccc(C(=O)Nc2cccc(-c3ncnc4[nH]c(C5=CCOCC5)cc34)c2CO)c(F)c1 [Example 23, N-{3-[6-(3,6-Dihydro-2H-pyran-4-yl)-7H-pyrrolo[2,3-d]pyrimidin-4-yl]-2-hydroxymethyl-phenyl}-2-fluoro-4-(1-hydroxy-1-methyl-ethyl)-benzamide] | 12
Cc1c(NC(=O)c2ccc(C(C)(C)C)cc2)cc(F)cc1-c1ncnc2[nH]c(C3=CC[S+]([O-])CC3)cc12 (stereo not drawn) [Example 25, 4-tert-Butyl-N-{5-fluoro-2-methyl-3-[6-(3,6-dihydro-1-oxido-2H-thiopyran-4-yl)-7H-pyrrolo[2,3-d]pyrimidin-4-yl]-phenyl}-benzamide] | 2
Cc1c(NC(=O)c2ccc(C(C)(C)C)cc2)cc(F)cc1-c1ncnc2[nH]c(C3=CCS(=O)(=O)CC3)cc12 [Example 26, 4-tert-Butyl-N-{3-[6-(3,6-dihydro-1,1-dioxido-2H-thiopyran-4-yl)-7H-pyrrolo[2,3-d]pyrimidin-4-yl]-5-fluoro-2-methyl-phenyl}-benzamide] | 35
Cc1c(NC(=O)c2ccc(C(C)(C)C)cc2)cc(F)cc1-c1ncnc2[nH]c(C3=CCC(O)CC3)cc12 (stereo not drawn) [Example 28, 4-tert-Butyl-N-{5-fluoro-3-[6-(4-hydroxy-cyclohex-1-enyl)-7H-pyrrolo[2,3-d]pyrimidin-4-yl]-2-methyl-phenyl}-benzamide] | 46
Cc1c(NC(=O)c2ccc(C3CC3)cc2)cc(F)cc1-c1ncnc2[nH]c(C3=CCN(C(=O)N(C)C)CC3)cc12 [Example 29, 4-{4-[3-(4-Cyclopropyl-benzoylamino)-5-fluoro-2-methyl-phenyl]-7H-pyrrolo[2′3-d]pyrimidin-6-yl}-3,6-dihydro-2H-pyridine-1-carboxylic acid dimethylamide] | 13
Cc1c(NC(=O)c2ccc(C3CC3)cc2)cc(F)cc1-c1ncnc2[nH]c(C3=CCN(C(=O)N4CCCC4)CC3)cc12 [Example 30, 4-Cyclopropyl-N-(5-fluoro-2-methyl-3-{6-[1-(pyrrolidine-1-carbonyl)-1,2,3,6-tetrahydro-pyridin-4-yl]-7H-pyrrolo[2,3-d]pyrimidin-4-yl}-phenyl)-benzamide] | 6
CC(=O)OCC(=O)N1CC=C(c2cc3c(-c4cc(F)cc(NC(=O)c5ccc(C6CC6)cc5)c4C)ncnc3[nH]2)CC1 [Example 31, Acetic acid 2-(4-{4-[3-(4 cyclopropyl-benzoylamino)-5-fluoro-2-methyl-phenyl]-7H-pyrrolo[2,3-d]pyrimidin-6-yl}-3,6-dihydro-2H-pyridin-1-yl)-2-oxo-ethyl ester] | 3
Cc1c(NC(=O)c2ccc(S(F)(F)(F)(F)F)cc2)cc(F)cc1-c1ncnc2[nH]c(C3=CCN(C(=O)N4CCCC4)CC3)cc12 [Example 34, N-(5-Fluoro-2-methyl-3-{6-[1-(pyrrolidine-1-carbonyl)-1,2,3,6-tetrahydro-pyridin-4-yl]-7H-pyrrolo[2,3-d]pyrimidin-4-yl}-phenyl)-4-(pentafluoro-sulfanyl)-benzamide] | 34
